The source made the active and inactive calls. The rule behind the calls is not given here.
Experiments:
SW-620 [1] = experiment: Cell cycle arrest in human SW620 cells assessed as accumulation of cells at G2/M phase upto 100 nM incubated for 24 hrs by PI staining based flow cytometric analysis; format: functional
[2] = molecular target: Serine-protein kinase ATM (Homo sapiens, UniProt Q13315); experiment: Inhibition of ATM phosphorylation in human SW620 cells with IR-induced DNA damage in the presence of 3 Gy irradiation by Western blot analysis; format: cell-based; conditions: dose 3-250 nM
SW-620 [3] = experiment: Cell cycle arrest in human SW620 cells assessed as accumulation of cells at G2/M phase incubated for 24 hrs in presence of CPT-11 by PI staining based flow cytometric analysis; format: functional; conditions: dose 10-100 nM
SW-620 [4] = experiment: Antiproliferative activity against human SW620 cells assessed as reduction in colony formation at 27 nM measured after 14 days by crystal violet staining based microscopic analysis; format: functional, cell-based; conditions: time 14.0 day
HCT-116 [5] = experiment: Induction of apoptosis in human HCT-116 cells assessed as viable cells at 100 nM measured after 72 hrs in presence of CPT-11 by Annexin V-FITC staining based flow cytometric analysis (reference value: 73.74%); format: functional; conditions: read-out: Activity
[6] = Toxicity in BALB/c mouse xenografted with human SW620 cells assessed as liver damage at 5 mg/kg, ip administered once daily and measured after 23 days by H&E staining based microscopic analysis; format: organism-based, SW-620; conditions: in vivo, 552 h, time 23 day
SW-620 [7] = experiment: Induction of apoptosis in human SW620 cells assessed as early apoptotic cells at 100 nM measured after 72 hrs in presence of CPT-11 by Annexin V-FITC staining based flow cytometric analysis (reference value: 1.06%); format: functional
HCT-116 [8] = experiment: Induction of apoptosis in human HCT-116 cells assessed as late apoptotic cells at 10 nM measured after 72 hrs in presence of CPT-11 by Annexin V-FITC staining based flow cytometric analysis (reference value: 19.80%); format: functional
HCT-116 [9] = experiment: Induction of apoptosis in human HCT-116 cells assessed as necrotic cells at 100 nM measured after 72 hrs by Annexin V-FITC staining based flow cytometric analysis (reference value: 2.41%); format: functional
HCT-116 [10] = experiment: Induction of apoptosis in human HCT-116 cells assessed as necrotic cells at 10 nM measured after 72 hrs in presence of CPT-11 by Annexin V-FITC staining based flow cytometric analysis (reference value: 2.41%); format: functional
[11] = molecular target: Serine/threonine-protein kinase mTOR (Homo sapiens, UniProt P42345); experiment: Inhibition of mTOR (unknown origin) incubated for 40 mins in the presence of Mn/ATP mix by scintillation counting analysis
HCT-116 [12] = experiment: Induction of apoptosis in human HCT-116 cells assessed as early apoptotic cells at 100 nM measured after 72 hrs by Annexin V-FITC staining based flow cytometric analysis (reference value: 4.06%); format: functional
SW-620 [13] = experiment: Induction of apoptosis in human SW620 cells assessed as necrotic cells at 100 nM measured after 72 hrs in presence of CPT-11 by Annexin V-FITC staining based flow cytometric analysis (reference value: 5.83%); format: functional
[14] = molecular target: PI3-kinase p110-delta/p85-alpha (Homo sapiens, UniProt O00329); experiment: Inhibition of human PI3K p110 delta/p85 alpha using phosphatidylinositol-4, 5-bisphosphate as substrate incubated for 30 mins in the presence of Mg/ATP mix by HTRF-based analysis; format: protein-complex assay
HCT-116 [15] = experiment: Cell cycle arrest in human HCT-116 cells assessed as accumulation of cells at G2/M phase incubated for 24 hrs in presence of CPT-11 by PI staining based flow cytometric analysis; format: functional; conditions: dose 10-100 nM
HCT-116 [16] = experiment: Induction of apoptosis in human HCT-116 cells assessed as late apoptotic cells at 1 uM measured after 72 hrs by Annexin V-FITC staining based flow cytometric analysis (reference value: 19.80%); format: functional
HCT-116 [17] = experiment: Induction of apoptosis in human HCT-116 cells assessed as necrotic cells at 1 uM measured after 72 hrs by Annexin V-FITC staining based flow cytometric analysis (reference value: 2.41%); format: functional
SW-620 [18] = experiment: Induction of apoptosis in human SW620 cells assessed as late apoptotic cells at 10 nM measured after 72 hrs in presence of CPT-11 by Annexin V-FITC staining based flow cytometric analysis (reference value: 5.75%); format: functional
HCT-116 [19] = experiment: Induction of apoptosis in human HCT-116 cells assessed as early apoptotic cells at 100 nM measured after 72 hrs in presence of CPT-11 by Annexin V-FITC staining based flow cytometric analysis (reference value: 4.06%); format: functional
[20] = molecular target: T1, Serine/threonine-protein kinase Chk1 (Homo sapiens) (UniProt O14757); experiment: Inhibition of CPT-11 induced Chk1 phosphorylation in human SW620 cells by SDS-PAGE based Westernblot analysis; format: cell-based
T1 sequence (whole entry): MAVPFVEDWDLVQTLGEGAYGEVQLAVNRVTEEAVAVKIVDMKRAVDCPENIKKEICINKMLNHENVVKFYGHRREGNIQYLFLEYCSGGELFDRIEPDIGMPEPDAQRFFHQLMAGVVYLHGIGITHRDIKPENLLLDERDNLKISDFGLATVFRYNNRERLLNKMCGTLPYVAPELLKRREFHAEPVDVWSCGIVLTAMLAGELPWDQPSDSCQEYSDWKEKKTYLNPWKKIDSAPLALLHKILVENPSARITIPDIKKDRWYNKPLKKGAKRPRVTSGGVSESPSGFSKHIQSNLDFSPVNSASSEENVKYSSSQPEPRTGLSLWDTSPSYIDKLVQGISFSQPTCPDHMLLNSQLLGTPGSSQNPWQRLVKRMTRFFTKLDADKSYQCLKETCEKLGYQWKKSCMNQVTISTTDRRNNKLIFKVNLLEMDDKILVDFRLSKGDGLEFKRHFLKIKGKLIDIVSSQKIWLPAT

SW-620 [21] = experiment: Antitumor activity against human SW620 cells xenografted in BALB/C mouse assessed as reduction in tumor volume at 5 mg/kg, ip administered once a week and measured after 23 days in the presence of CPT-11; format: functional, organism-based; conditions: time 23.0 day
HCT-116 [22] = experiment: Anticancer activity against human HCT-116 cells assessed as reduction in cell viability by measuring fold change in CPT-11 IC50 at 100 nM incubated for 5 days by MTT assay relative irinotecan alone; format: functional; conditions: time 5 day
SW-620 [23] = experiment: Induction of apoptosis in human SW620 cells assessed as necrotic cells at 100 nM measured after 72 hrs by Annexin V-FITC staining based flow cytometric analysis (reference value: 5.83%); format: functional
[24] = molecular target: DNA-dependent protein kinase catalytic subunit (Homo sapiens, UniProt P78527); experiment: Inhibition of DNA-PK (unknown origin) using GST-cMyc-p53 as substrate incubated for 30 mins in the presence of Mg/ATP mix by HTRF-based analysis
[25] = molecular target: Serine/threonine-protein kinase ATR (Homo sapiens, UniProt Q13535); experiment: Inhibition of ATR (unknown origin) using GST-cMyc-p53 as substrate incubated for 30 mins in the presence of Mg/ATP mix by HTRF-based analysis
HCT-116 [26] = experiment: Induction of apoptosis in human HCT-116 cells assessed as viable cells at 10 nM measured after 72 hrs in presence of CPT-11 by Annexin V-FITC staining based flow cytometric analysis (reference value: 73.74%); format: functional; conditions: read-out: Activity

Chain of DNA-dependent protein kinase catalytic subunit (P78527 whole entry): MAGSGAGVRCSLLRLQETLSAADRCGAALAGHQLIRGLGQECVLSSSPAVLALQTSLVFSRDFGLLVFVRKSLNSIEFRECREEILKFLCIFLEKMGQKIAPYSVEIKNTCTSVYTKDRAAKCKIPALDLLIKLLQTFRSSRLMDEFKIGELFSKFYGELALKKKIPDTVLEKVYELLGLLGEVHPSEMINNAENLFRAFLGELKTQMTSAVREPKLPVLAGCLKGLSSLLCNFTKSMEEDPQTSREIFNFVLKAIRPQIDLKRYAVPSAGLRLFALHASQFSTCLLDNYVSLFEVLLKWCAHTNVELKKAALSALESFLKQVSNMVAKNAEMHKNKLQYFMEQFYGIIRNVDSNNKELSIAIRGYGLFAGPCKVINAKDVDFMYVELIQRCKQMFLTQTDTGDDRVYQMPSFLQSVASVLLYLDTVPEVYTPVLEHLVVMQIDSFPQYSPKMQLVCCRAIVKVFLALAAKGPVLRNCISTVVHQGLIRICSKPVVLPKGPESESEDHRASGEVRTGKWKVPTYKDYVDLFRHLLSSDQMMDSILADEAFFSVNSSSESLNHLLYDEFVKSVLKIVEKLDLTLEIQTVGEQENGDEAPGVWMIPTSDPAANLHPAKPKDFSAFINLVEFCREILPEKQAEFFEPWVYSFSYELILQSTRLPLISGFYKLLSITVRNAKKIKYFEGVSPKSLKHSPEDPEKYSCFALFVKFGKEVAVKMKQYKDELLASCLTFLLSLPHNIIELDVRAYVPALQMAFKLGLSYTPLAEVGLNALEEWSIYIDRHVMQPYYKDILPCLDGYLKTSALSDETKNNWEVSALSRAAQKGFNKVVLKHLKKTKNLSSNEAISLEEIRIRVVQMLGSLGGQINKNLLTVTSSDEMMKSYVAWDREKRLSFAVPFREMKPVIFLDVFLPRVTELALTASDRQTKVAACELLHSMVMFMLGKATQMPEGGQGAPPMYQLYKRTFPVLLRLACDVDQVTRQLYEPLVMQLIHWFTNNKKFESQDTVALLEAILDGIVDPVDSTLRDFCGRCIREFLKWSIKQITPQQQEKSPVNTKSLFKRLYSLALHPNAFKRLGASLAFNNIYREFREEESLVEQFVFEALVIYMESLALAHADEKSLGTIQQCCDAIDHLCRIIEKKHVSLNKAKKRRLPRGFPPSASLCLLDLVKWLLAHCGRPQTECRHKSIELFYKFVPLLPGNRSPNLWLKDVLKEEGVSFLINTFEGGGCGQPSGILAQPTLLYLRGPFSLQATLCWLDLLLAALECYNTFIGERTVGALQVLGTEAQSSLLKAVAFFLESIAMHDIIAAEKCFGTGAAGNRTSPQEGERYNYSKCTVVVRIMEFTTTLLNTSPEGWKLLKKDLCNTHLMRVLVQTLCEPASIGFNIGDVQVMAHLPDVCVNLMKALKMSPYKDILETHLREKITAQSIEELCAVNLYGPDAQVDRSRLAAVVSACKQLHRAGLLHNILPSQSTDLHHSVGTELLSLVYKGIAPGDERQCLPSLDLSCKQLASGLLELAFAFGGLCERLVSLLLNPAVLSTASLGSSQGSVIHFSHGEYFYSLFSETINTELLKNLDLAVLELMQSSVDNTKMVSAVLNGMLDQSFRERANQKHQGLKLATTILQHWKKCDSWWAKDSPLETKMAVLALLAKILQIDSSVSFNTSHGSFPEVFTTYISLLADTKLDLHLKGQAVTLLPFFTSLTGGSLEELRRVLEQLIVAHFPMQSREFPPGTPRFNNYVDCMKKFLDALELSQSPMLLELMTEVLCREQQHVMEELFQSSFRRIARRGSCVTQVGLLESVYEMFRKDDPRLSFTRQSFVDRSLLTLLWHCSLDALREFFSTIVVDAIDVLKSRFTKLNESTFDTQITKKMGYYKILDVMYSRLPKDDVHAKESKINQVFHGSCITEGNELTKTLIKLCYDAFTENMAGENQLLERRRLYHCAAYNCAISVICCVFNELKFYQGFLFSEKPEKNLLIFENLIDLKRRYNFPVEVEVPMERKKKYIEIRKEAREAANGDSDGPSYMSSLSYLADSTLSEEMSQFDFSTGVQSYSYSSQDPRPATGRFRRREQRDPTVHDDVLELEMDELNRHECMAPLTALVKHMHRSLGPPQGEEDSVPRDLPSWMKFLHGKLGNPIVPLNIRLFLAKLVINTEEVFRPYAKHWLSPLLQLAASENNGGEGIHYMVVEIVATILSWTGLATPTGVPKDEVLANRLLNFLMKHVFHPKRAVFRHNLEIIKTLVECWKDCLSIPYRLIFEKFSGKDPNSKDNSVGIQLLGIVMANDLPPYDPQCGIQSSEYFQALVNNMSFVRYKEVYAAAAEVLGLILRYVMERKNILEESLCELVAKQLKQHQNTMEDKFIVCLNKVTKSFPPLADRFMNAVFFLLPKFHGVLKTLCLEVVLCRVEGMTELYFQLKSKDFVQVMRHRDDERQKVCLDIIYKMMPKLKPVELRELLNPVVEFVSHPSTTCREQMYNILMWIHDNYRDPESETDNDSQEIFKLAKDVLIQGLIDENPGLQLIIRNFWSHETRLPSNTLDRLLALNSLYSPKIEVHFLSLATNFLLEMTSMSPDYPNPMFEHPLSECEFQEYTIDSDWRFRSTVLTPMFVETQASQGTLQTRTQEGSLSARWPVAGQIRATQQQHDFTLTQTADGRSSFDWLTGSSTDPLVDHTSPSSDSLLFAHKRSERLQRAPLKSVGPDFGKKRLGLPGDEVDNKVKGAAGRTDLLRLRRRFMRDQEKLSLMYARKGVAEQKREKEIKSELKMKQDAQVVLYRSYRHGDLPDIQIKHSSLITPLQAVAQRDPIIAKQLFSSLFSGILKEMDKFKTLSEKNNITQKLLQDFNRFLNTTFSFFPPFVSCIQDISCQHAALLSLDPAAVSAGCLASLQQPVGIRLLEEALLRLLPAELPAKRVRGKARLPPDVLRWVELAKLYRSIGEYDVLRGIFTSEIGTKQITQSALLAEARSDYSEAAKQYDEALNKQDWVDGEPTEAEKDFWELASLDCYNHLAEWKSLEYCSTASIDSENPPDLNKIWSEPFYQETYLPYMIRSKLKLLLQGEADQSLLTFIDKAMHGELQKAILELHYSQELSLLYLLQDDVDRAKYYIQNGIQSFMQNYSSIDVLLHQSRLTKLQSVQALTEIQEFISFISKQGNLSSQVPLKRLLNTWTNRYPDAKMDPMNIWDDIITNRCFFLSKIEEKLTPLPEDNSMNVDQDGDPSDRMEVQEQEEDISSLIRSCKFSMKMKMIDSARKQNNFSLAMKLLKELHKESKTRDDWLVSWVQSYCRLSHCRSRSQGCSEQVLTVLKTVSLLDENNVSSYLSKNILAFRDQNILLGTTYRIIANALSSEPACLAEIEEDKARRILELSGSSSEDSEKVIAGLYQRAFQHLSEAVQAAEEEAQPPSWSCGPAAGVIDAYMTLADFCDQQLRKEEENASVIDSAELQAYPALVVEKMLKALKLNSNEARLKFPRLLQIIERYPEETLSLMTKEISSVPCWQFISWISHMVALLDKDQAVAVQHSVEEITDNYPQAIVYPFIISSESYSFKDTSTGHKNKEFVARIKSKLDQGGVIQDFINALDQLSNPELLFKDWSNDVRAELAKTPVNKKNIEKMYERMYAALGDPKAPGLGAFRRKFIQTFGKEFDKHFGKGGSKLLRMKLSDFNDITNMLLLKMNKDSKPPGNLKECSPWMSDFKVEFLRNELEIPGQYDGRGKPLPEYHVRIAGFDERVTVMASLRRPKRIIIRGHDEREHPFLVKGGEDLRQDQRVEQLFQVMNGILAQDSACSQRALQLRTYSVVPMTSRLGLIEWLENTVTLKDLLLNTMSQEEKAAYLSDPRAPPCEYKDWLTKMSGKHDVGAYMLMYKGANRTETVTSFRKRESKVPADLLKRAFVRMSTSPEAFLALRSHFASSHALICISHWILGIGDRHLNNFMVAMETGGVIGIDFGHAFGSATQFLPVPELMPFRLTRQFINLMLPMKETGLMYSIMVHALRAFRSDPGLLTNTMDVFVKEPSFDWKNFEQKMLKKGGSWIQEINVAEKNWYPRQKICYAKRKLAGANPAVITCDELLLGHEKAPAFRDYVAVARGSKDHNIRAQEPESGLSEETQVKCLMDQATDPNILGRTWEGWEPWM

C[C@H](c1ccccc1)n1nnc2cnc3ccc(-c4ccc(OCCCN(C)C)nc4)cc3c21
Activity (SW-620 [1]): inactive | inhibition [2]: Dose-Dependent Effect | Activity (SW-620 [3]): Dose-Dependent Effect | Activity (SW-620 [4]): inactive | viability at 0.1 µM (HCT-116 [5]): 22% | Activity [6]: Non-Toxic | Activity (SW-620 [7]): 7.18% | Activity (HCT-116 [8]): 34.21% | Activity (HCT-116 [9]): 9.24% | Activity (HCT-116 [10]): 8.88% | IC50 [11]: 216 nM | Activity (HCT-116 [12]): 1.21% | Activity (SW-620 [13]): 1.63% | IC50 [14]: 1030 nM | Activity (HCT-116 [15]): Dose-Dependent Effect | Activity (HCT-116 [16]): 31.02% | Activity (HCT-116 [17]): 5.57% | Activity (SW-620 [18]): 27.19% | Activity (HCT-116 [19]): 2.77% | inhibition [20]: inactive | Activity (SW-620 [21]): Active | fold change (FC) (HCT-116 [22]): 16 | Activity (SW-620 [23]): 6.3% | IC50 [24]: 123 nM | IC50 [25]: > 10000 nM | viability at 0.01 µM (HCT-116 [26]): 55.8%

From ChEMBL document CHEMBL5316381, “Discovery of [1,2,3]Triazolo[4,5-c]quinoline Derivatives as a New Class of Ataxia-Telangiectasia Mutated Kinase Inhibitors” (ACS Med Chem Lett, 2023)
